Laboratory results taken from ChEMBL document CHEMBL3272079, “Synthesis and preliminary pharmacological activity of aminoalkoxy isosteres of glycolate ester anticholinergics” (J Med Chem, 1977).
Where a name gives a salt, the structure may show the parent alone. Active and inactive are the calls of the source. The rule behind the calls is not given here.

Key:
Rattus norvegicus [1] = organism: Rattus norvegicus; assay: animal or person; type: functional; details: Wistar, ip, route intraperitoneal
Description: Anticataleptic activity in albino Wistar rat assessed as inhibition of perphenazine-induced catatonia at 2 mg/kg, ip preincubated for 15 mins followed by perphenazine challenge measured at 3 hrs relative to control

Rattus norvegicus [2] = organism: Rattus norvegicus; assay: animal or person; type: functional; details: Wistar, ip, route intraperitoneal; remark: listed apart in the source
Description: Anticataleptic activity in albino Wistar rat assessed as inhibition of perphenazine-induced catatonia at 2 mg/kg, ip preincubated for 15 mins followed by perphenazine challenge measured at 2 hrs relative to control

Rattus norvegicus [3] = organism: Rattus norvegicus; assay: animal or person; type: functional; details: Wistar, ip, route intraperitoneal; remark: listed apart in the source
Description: Anticataleptic activity in albino Wistar rat assessed as inhibition of perphenazine-induced catatonia at 2 mg/kg, ip preincubated for 15 mins followed by perphenazine challenge measured at 0.5 hrs relative to control

Rattus norvegicus [4] = organism: Rattus norvegicus; details: Wistar, Jejunum;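 as to pD'2: muscarinic receptor antagonism measured as block of acetylcholine-evoked contraction in isolated jejunum, tissue exposed to test compound for 2 min before the acetylcholine challenge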
Description: Antagonist activity at muscarinic acetylcholine receptor in Wistar rat jejunum assessed as inhibition of acetylcholine-induced contraction preincubated for 2 mins followed by acetylcholine challenge

Rattus norvegicus [5] = organism: Rattus norvegicus; assay: animal or person; type: functional; details: Wistar, ip, route intraperitoneal; remark: listed apart in the source
Description: Anticataleptic activity in albino Wistar rat assessed as inhibition of perphenazine-induced catatonia at 2 mg/kg, ip preincubated for 15 mins followed by perphenazine challenge measured at 1 hr relative to control

[6] = Octanol-phosphate buffer partition coefficient, Kp of the compound at pH 7.4; type: physicochemical
Oryctolagus cuniculus = assay: Central dopaminergic activity in New Zealand rabbit assessed as change in colonic temperature at 5 mg/kg, iv measured every 15 mins for 2 hrs by thermistor probe attached telethermometric analysis; type: functional, organism-based; parameters: dose 5 mg/kg

Question: Which inhibition in vivo at 2 mg/kg (Rattus norvegicus [1]) does the source give for `CN1CCC(OCC(O)(c2ccccc2)c2ccccc2)C1` (configuration not stated) here?
Answer: The inhibition in vivo at 2 mg/kg was 0%.

Question: What about the inhibition in vivo at 2 mg/kg (Rattus norvegicus [2]) of the same molecule?
Answer: The inhibition in vivo at 2 mg/kg was 8%.

Question: What about the inhibition in vivo at 2 mg/kg (Rattus norvegicus [3]) of the same molecule?
Answer: The inhibition in vivo at 2 mg/kg was 50%.

Question: And the pD'2 (Rattus norvegicus [4])?
Answer: Its pD'2 is 5.58.

Question: What about the inhibition in vivo at 2 mg/kg (Rattus norvegicus [5]) of the same molecule?
Answer: Its inhibition in vivo at 2 mg/kg is 21%.

Question: With `CC[N+](C)(CC)CCOCC(O)(c1ccccc1)c1ccccc1` as the molecule, how does the pD'2 (Rattus norvegicus [4]) read?
Answer: The pD'2 was 6.92.

Question: With `C=CCN(CC)CCOCC(O)(c1ccccc1)c1ccccc1` as the molecule, how does the inhibition in vivo at 2 mg/kg (Rattus norvegicus [1]) read?
Answer: Its inhibition in vivo at 2 mg/kg is 0%.

Question: What about the inhibition in vivo at 2 mg/kg (Rattus norvegicus [2]) of the same molecule?
Answer: Its inhibition in vivo at 2 mg/kg is 0%.

Question: What about the inhibition in vivo at 2 mg/kg (Rattus norvegicus [3]) of the same molecule?
Answer: Its inhibition in vivo at 2 mg/kg is 8%.

Question: And the pD'2 (Rattus norvegicus [4])?
Answer: Its pD'2 is 5.13.

Question: What about the inhibition in vivo at 2 mg/kg (Rattus norvegicus [5]) of the same molecule?
Answer: Its inhibition in vivo at 2 mg/kg is 0%.

Question: For `CCN(CC)CCOCC(O)(c1ccccc1)c1ccccc1` [listing 1 of 3 here], which inhibition in vivo at 2 mg/kg (Rattus norvegicus [1]) is on record?
Answer: Its inhibition in vivo at 2 mg/kg is 0%.

Question: And the inhibition in vivo at 2 mg/kg (Rattus norvegicus [2])?
Answer: Its inhibition in vivo at 2 mg/kg is 0%.

Question: And the inhibition in vivo at 2 mg/kg (Rattus norvegicus [3])?
Answer: Its inhibition in vivo at 2 mg/kg is 38%.

Question: What about the inhibition in vivo at 2 mg/kg (Rattus norvegicus [5]) of the same molecule?
Answer: The inhibition in vivo at 2 mg/kg was 0%.

Question: For `CN1CCC(OCC(O)(c2ccccc2)c2ccccc2)CC1` [listing 1 of 3 here], which Kp [6] is on record?
Answer: Its Kp is 3.1.

Question: What does the source list for `CN1[C@@H]2C[C@@H](OC(=O)[C@H](CO)c3ccccc3)C[C@H]1[C@@H]1O[C@@H]12` [SCOPOLAMINE HYDROBROMIDE]?
Answer: inhibition in vivo at 2 mg/kg (Rattus norvegicus [1]): 71%; inhibition in vivo at 2 mg/kg (Rattus norvegicus [2]): 83%; inhibition in vivo at 2 mg/kg (Rattus norvegicus [3]): 96%; pD'2 (Rattus norvegicus [4]): 5.31; inhibition in vivo at 2 mg/kg (Rattus norvegicus [5]): 96%

Question: What does the source list for `OC(COC1CN2CCC1CC2)(c1ccccc1)c1ccccc1` (configuration not stated)?
Answer: Activity (Oryctolagus cuniculus): inactive; inhibition in vivo at 2 mg/kg (Rattus norvegicus [1]): 48%; inhibition in vivo at 2 mg/kg (Rattus norvegicus [2]): 56%; inhibition in vivo at 2 mg/kg (Rattus norvegicus [3]): 96%; pD'2 (Rattus norvegicus [4]): 6.58; inhibition in vivo at 2 mg/kg (Rattus norvegicus [5]): 85%

Question: Which pD'2 (Rattus norvegicus [4]) does the source give for `CN1CCC(OCC(O)(c2ccccc2)c2ccccc2)CC1` [listing 2 of 3 here] here?
Answer: Its pD'2 is 6.24.

Question: Which pD'2 (Rattus norvegicus [4]) does the source give for `C[N+]1(C)CCCC(OCC(O)(c2ccccc2)c2ccccc2)C1` (configuration not stated) here?
Answer: The pD'2 was 5.68.

Question: Which inhibition in vivo at 2 mg/kg (Rattus norvegicus [1]) does the source give for `CN1CCCC(OCC(O)(c2ccccc2)c2ccccc2)C1` (configuration not stated) here?
Answer: The inhibition in vivo at 2 mg/kg was 17%.

Question: And the inhibition in vivo at 2 mg/kg (Rattus norvegicus [2])?
Answer: Its inhibition in vivo at 2 mg/kg is 54%.

Question: What about the inhibition in vivo at 2 mg/kg (Rattus norvegicus [3]) of the same molecule?
Answer: The inhibition in vivo at 2 mg/kg was 92%.

Question: And the pD'2 (Rattus norvegicus [4])?
Answer: Its pD'2 is 4.9.

Question: What about the inhibition in vivo at 2 mg/kg (Rattus norvegicus [5]) of the same molecule?
Answer: The inhibition in vivo at 2 mg/kg was 67%.

Question: For `C[N+]1(C)CCC(OCC(O)(c2ccccc2)c2ccccc2)CC1`, which pD'2 (Rattus norvegicus [4]) is on record?
Answer: Its pD'2 is 7.26.

Question: With `CN1[C@@H]2CC[C@H]1C[C@H](OC(=O)C(CO)c1ccccc1)C2` (some centres not stated) as the molecule, how does the inhibition in vivo at 2 mg/kg (Rattus norvegicus [1]) read?
Answer: Its inhibition in vivo at 2 mg/kg is 27%.

Question: And the inhibition in vivo at 2 mg/kg (Rattus norvegicus [2])?
Answer: Its inhibition in vivo at 2 mg/kg is 30%.

Question: And the inhibition in vivo at 2 mg/kg (Rattus norvegicus [3])?
Answer: The inhibition in vivo at 2 mg/kg was 87%.

Question: What about the pD'2 (Rattus norvegicus [4]) of the same molecule?
Answer: Its pD'2 is 7.3.

Question: What about the inhibition in vivo at 2 mg/kg (Rattus norvegicus [5]) of the same molecule?
Answer: Its inhibition in vivo at 2 mg/kg is 56%.

Question: Which results are given for `C=CCN(C)CCOCC(O)(c1ccccc1)c1ccccc1`?
Answer: inhibition in vivo at 2 mg/kg (Rattus norvegicus [1]): 0%; inhibition in vivo at 2 mg/kg (Rattus norvegicus [2]): 17%; inhibition in vivo at 2 mg/kg (Rattus norvegicus [3]): 79%; pD'2 (Rattus norvegicus [4]): 4.09; inhibition in vivo at 2 mg/kg (Rattus norvegicus [5]): 25%

Question: With `CC[N+]1(C)CCCC(OCC(O)(c2ccccc2)c2ccccc2)C1` (configuration not stated) as the molecule, how does the pD'2 (Rattus norvegicus [4]) read?
Answer: Its pD'2 is 5.

Question: For `CCN(CC)CCOCC(O)(c1ccccc1)c1ccccc1` [listing 2 of 3 here], which Kp [6] is on record?
Answer: The Kp was 5.6.

Question: What does the source list for `CCN(CC)CCOC(=O)C(O)(c1ccccc1)c1ccccc1.Cl`?
Answer: Activity (Oryctolagus cuniculus): inactive; Kp [6]: 0.26

Question: With `CN(C)CCOCC(O)(c1ccccc1)c1ccccc1` as the molecule, how does the inhibition in vivo at 2 mg/kg (Rattus norvegicus [1]) read?
Answer: Its inhibition in vivo at 2 mg/kg is 8%.

Question: What about the inhibition in vivo at 2 mg/kg (Rattus norvegicus [2]) of the same molecule?
Answer: The inhibition in vivo at 2 mg/kg was 21%.

Question: What about the inhibition in vivo at 2 mg/kg (Rattus norvegicus [3]) of the same molecule?
Answer: The inhibition in vivo at 2 mg/kg was 75%.

Question: And the pD'2 (Rattus norvegicus [4])?
Answer: The pD'2 was 4.68.

Question: And the inhibition in vivo at 2 mg/kg (Rattus norvegicus [5])?
Answer: Its inhibition in vivo at 2 mg/kg is 21%.

Question: With `CN(C)CCCOCC(O)(c1ccccc1)c1ccccc1` as the molecule, how does the inhibition in vivo at 2 mg/kg (Rattus norvegicus [1]) read?
Answer: Its inhibition in vivo at 2 mg/kg is 17%.

Question: What about the inhibition in vivo at 2 mg/kg (Rattus norvegicus [2]) of the same molecule?
Answer: Its inhibition in vivo at 2 mg/kg is 54%.

Question: What about the inhibition in vivo at 2 mg/kg (Rattus norvegicus [3]) of the same molecule?
Answer: The inhibition in vivo at 2 mg/kg was 100%.

Question: And the pD'2 (Rattus norvegicus [4])?
Answer: The pD'2 was 5.02.

Question: What about the inhibition in vivo at 2 mg/kg (Rattus norvegicus [5]) of the same molecule?
Answer: Its inhibition in vivo at 2 mg/kg is 71%.

Question: For `C[N+]12CCC(CC1)C(OCC(O)(c1ccccc1)c1ccccc1)C2` (configuration not stated), which pD'2 (Rattus norvegicus [4]) is on record?
Answer: Its pD'2 is 6.18.

Question: Which inhibition in vivo at 2 mg/kg (Rattus norvegicus [1]) does the source give for `CN1CCC(OCC(O)(c2ccccc2)c2ccccc2)CC1` [listing 3 of 3 here] here?
Answer: The inhibition in vivo at 2 mg/kg was 0%.

Question: What about the inhibition in vivo at 2 mg/kg (Rattus norvegicus [2]) of the same molecule?
Answer: The inhibition in vivo at 2 mg/kg was 7%.

Question: What about the inhibition in vivo at 2 mg/kg (Rattus norvegicus [3]) of the same molecule?
Answer: Its inhibition in vivo at 2 mg/kg is 80%.

Question: What about the inhibition in vivo at 2 mg/kg (Rattus norvegicus [5]) of the same molecule?
Answer: Its inhibition in vivo at 2 mg/kg is 37%.

Question: Which inhibition in vivo at 2 mg/kg (Rattus norvegicus [1]) does the source give for `CCN1CCCC(OCC(O)(c2ccccc2)c2ccccc2)C1` (configuration not stated) here?
Answer: Its inhibition in vivo at 2 mg/kg is 0%.

Question: And the inhibition in vivo at 2 mg/kg (Rattus norvegicus [2])?
Answer: Its inhibition in vivo at 2 mg/kg is 0%.

Question: What about the inhibition in vivo at 2 mg/kg (Rattus norvegicus [3]) of the same molecule?
Answer: The inhibition in vivo at 2 mg/kg was 12%.

Question: What about the pD'2 (Rattus norvegicus [4]) of the same molecule?
Answer: Its pD'2 is 4.95.

Question: And the inhibition in vivo at 2 mg/kg (Rattus norvegicus [5])?
Answer: The inhibition in vivo at 2 mg/kg was 0%.

Question: With `C[N+](C)(C)CCOCC(O)(c1ccccc1)c1ccccc1` as the molecule, how does the pD'2 (Rattus norvegicus [4]) read?
Answer: The pD'2 was 5.49.

Question: What does the source list for `CCN(CC)CCOCC(O)(c1ccccc1)c1ccccc1` [listing 3 of 3 here]?
Answer: Activity (Oryctolagus cuniculus): inactive; pD'2 (Rattus norvegicus [4]): 4.92
